In assay [1] the target is V241A/KCNE1 (Homo sapiens, UniProt P15382+P51787, V241A). Nature of the assay: TEVC, mutant channel V241A/KCNE1 in oocytes. Format: cell-based. The conditions noted are these: Kv7.1 V241A mutant with KCNE1. From the text: Ala scanning was previously used to identify specific residues that form the putative binding sites for chromanol and benzodiazepine derivatives that are considered to be classical pore blockers of Kv7.1 channels. Here we applied Ala scanning to multiple segments of the Kv7.1 α-subunit to identify potential AC-1 interaction sites in the extended pore region of Kv7.1/KCNE1 channels (Fig. 3a). In cases where mutation to Ala precluded channel function, alternative residues were introduced. […] Instead, most of these crucial residues cluster around a ‘window' formed uniquely in the preopen–closed state model of the Kv7.1/KCNE1 channel[33] (Fig. 3c, magenta residues). […]
(§1) Template cDNAs (wildtype or mutant human Kv7.1 in pSGEM, wildtype human KCNE1 in pSP64) were linearized with a suitable restriction enzyme (Nhe I/pSGEM, Eco RI/pSP64). cRNA was synthesized from 1 μg linearized cDNA by in vitro transcription (mMessage mMachine T7 or SP6 kit, Ambion, Life Technologies Darmstadt, Germany). cRNA concentrations were determined by photometry (Nanodrop, Peqlab, Erlangen, Germany) and cRNA quality was checked by agarose gel electrophoresis. […]
TEVC measurements were performed using a TurboTec-10CD amplifier (npi Electronic, Tamm, Germany) and an ITC-16 AD/DA-interface (Instrutech Corporation, Port Washington, New York, USA). […] Tail currents were recorded at −120 mV. […]

In assay [2] the test system is Kv7.1/KCNE2–5. Nature of the assay: TEVC, Kv7.1 co-expressed with other KCNE isoforms. Type of assay: cell-based. The conditions noted are these: 1 μM.
Assay [3] deals with T1, homomeric Kv7.1.
T1 construct: expressed in transfected cells; host or cells: Xenopus oocytes, cRNA injected
Nature of the assay: TEVC, homomeric Kv7.1 channels in oocytes. Type of assay: cell-based, human. On the procedure:
Figure 1 AC-1 inhibits Kv7.1 channels only in the presence of KCNE1. (a) Structure of adamantane compound AC-1. (b) Concentration-response relationship for inhibition of Kv7.1/KCNE channel currents by AC-1. Kv7.1/KCNE1 channel currents were activated by repetitive 7 s pulses to +40 mV applied from a holding potential of −80 mV. Inhibition was determined as percent change in current amplitude at the end of the depolarizing test pulse to +40 mV. Data were fitted (smooth curve) to the Hill equation (n=5–70,±s.e.m.). (c) The inhibitory effect of different AC-1 concentrations on Kv7.1/KCNE1 channels was determined by repetitive 7 s pulses to +40 mV applied from a holding potential of −80 mV. […] Inhibition of current was determined as described above and plotted against the amount (in ng) of cRNA injected into individual oocytes. […]
as §1

Broadly, the IC50 is the point on the concentration scale where inhibition reaches its midpoint. A low value points to greater potency in that assay. On to `CC(C)(Oc1ccc(Cl)cc1)C(=O)NC1C2CC3CC1CC(NS(C)(=O)=O)(C3)C2` (stereo not shown) [AC-1, 2-(4-chlorophenoxy)-2-methyl-N-[5-[(methylsulfonyl)amino]tricyclo[3.3.1.13,7]dec-2-yl]-propanamide], for which, in assay [1], the IC50 worked out at 0.234 ± 0.015 µM. The “sensitivity of Kv7.1/KCNE2-5 currents” value in assay [2] was “insensitive”. For the same compound, the “effect on homomeric Kv7.1” value in assay [3] (1 μM) was “does not affect”. In addition, the “effect of different concentrations on Kv7.1 homotetramers” value in assay [3] (different concentrations, up to 10 μM, +40 mV) is given as “Lack of effect”.

Source of the values: paper PMC5064022, “KCNE1 induces fenestration in the Kv7.1/KCNE1 channel complex that allows for highly specific pharmacological targeting” (Nature Communications, 2016).
